This passage reports IC50 and Activity results from ChEMBL document CHEMBL2074501, “Inhibition of P-glycoprotein by newer antidepressants” (J Pharmacol Exp Ther, 2003).

The first data set deals with ATP-dependent translocase ABCB1 (Homo sapiens, UniProt P08183). Kind of data set: TP_TRANSPORTER: cell accumulation of calcein in L-MDR1 cells.
Sequence of ATP-dependent translocase ABCB1 (P08183 whole entry): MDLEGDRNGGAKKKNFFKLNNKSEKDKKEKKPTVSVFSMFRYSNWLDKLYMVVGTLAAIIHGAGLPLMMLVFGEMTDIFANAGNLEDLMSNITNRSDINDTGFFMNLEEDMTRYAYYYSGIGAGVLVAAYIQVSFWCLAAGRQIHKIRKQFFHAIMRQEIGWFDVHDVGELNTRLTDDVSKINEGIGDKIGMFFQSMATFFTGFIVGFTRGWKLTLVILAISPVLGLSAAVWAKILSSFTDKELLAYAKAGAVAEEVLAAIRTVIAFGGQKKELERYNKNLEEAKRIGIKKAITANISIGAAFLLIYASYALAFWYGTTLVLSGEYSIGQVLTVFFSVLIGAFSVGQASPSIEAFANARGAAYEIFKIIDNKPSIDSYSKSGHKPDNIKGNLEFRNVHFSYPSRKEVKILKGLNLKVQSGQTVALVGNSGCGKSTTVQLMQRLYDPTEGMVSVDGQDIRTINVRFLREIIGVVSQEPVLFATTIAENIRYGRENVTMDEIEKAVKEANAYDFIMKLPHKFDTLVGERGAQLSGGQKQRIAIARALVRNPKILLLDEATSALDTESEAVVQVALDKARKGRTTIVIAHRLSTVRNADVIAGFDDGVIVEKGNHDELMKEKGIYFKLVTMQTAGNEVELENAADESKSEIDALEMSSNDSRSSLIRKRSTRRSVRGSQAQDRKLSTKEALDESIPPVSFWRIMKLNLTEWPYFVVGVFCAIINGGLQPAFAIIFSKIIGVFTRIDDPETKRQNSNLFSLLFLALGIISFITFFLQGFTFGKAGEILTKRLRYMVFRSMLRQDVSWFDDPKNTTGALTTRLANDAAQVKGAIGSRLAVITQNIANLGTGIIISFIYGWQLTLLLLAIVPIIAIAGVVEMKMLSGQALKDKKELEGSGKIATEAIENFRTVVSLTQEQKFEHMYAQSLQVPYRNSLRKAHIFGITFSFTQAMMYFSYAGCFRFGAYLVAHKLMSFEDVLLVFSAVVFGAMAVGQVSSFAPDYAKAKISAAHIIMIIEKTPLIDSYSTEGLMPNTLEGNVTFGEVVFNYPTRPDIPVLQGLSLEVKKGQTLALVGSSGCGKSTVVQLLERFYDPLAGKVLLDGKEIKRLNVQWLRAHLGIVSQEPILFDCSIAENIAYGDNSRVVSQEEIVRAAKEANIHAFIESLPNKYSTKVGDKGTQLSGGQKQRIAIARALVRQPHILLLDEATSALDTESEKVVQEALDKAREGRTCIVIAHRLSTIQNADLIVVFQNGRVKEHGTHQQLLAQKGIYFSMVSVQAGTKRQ
Details: not given
The class given is functional, cell-based.
As for `Fc1ccc([C@@H]2CCNC[C@H]2COc2ccc3c(c2)OCO3)cc1` [PAROXETINE], the IC50 was 29.8 µM.
Still for that read-out and setting: the result for `CN[C@H]1CC[C@@H](c2ccc(Cl)c(Cl)c2)c2ccccc21` [SERTRALINE] reads 31.8 µM.

Staying with this data set, now noted: pig, l-mdr1.
As for `C/C=C/C[C@@H](C)C(=O)[C@H]1C(=O)N[C@@H](C(C)C)C(=O)N(C)CC(=O)N(C)[C@@H](CC(C)C)C(=O)N[C@@H](C(C)C)C(=O)N(C)[C@@H](CC(C)C)C(=O)N[C@@H](C)C(=O)N[C@H](C)C(=O)N(C)[C@@H](CC(C)C)C(=O)N(C)[C@@H](CC(C)C)C(=O)N(C)[C@@H](C(C)C)C(=O)N1C`, the Activity entry was “inhibitor [+]”.
Still for that read-out and setting: then `N[C@H]1CC[C@@H](c2ccc(Cl)c(Cl)c2)c2ccccc21`, with “inhibitor [+]”.
Same read-out and setting: the result for `CN(C)CCCC1(c2ccc(F)cc2)OCc2cc(C#N)ccc21` (configuration not stated) [CITALOPRAM] reads “inhibitor [+]”; that for `CNCCCC1(c2ccc(F)cc2)OCc2cc(C#N)ccc21` (configuration not stated) [DESMETHYLCITALOPRAM], “inhibitor [+]”.
Same read-out and setting: the result for `CN(C)CC(c1ccc(O)cc1)C1(O)CCCCC1` (configuration not stated) [DESVENLAFAXINE] reads “is not an inhibitor [-]”; that for `COCCCC/C(=N\OCCN)c1ccc(C(F)(F)F)cc1` [FLUVOXAMINE], “inhibitor [+]”; that for `CNCC(c1ccc(OC)cc1)C1(O)CCCCC1` (configuration not stated) [N-DESMETHYLVENLAFAXINE], “inhibitor [+]”.
In the case of `NCCC(Oc1ccc(C(F)(F)F)cc1)c1ccccc1` (configuration not stated) [NORFLUOXETINE], the Activity entry is “inhibitor [+]”.
On the same count and under the same terms, then `COc1cc(OC[C@@H]2CNCC[C@H]2c2ccc(F)cc2)ccc1O` [Paroxetine-M], with “inhibitor [+]”.
Same read-out and setting: the result for `COc1ccc(C(CN(C)C)C2(O)CCCCC2)cc1` (configuration not stated) [VENLAFAXINE] reads “inhibitor [+]”.

The term IC50 denotes the concentration that gives 50% inhibition.
